A short description of data set [1]: Half life in mouse liver microsomes. In kind it is ADME, Microsome. A general note: Liver microsomes are vesicles of endoplasmic reticulum, rich in cytochrome P450 enzymes.
Data set [2] in a line: Cmax in BALB/c mouse at 10 mg/kg, iv measured for 24 hrs by LC-MS/MS analysis. The data set is classed as ADME, organism-based. Set-up: time 24 hrs, dose 10 mg/kg, route iv. Conditions: in vivo.
Data set [3] can be described thus: AUC(0 to t) in BALB/c mouse at 10 mg/kg, ip measured for 24 hrs by LC-MS/MS analysis. Also on record: dose 10 mg/kg, time 24 hrs, route ip. Conditions: in vivo. The data set is classed as ADME, organism-based.
The test system of data set [4] is Mus musculus. In words: Reno-protective activity against LPS-induced acute kidney injury C57BL/6J mouse model assessed as decrease in BUN level at 10 mg/kg, ip administered twice at 30 mins prior to LPS challenge and 8 hrs post-LPS challenge and measured at 16 hrs post-LPS challenge. In kind it is functional, organism-based. Conditions: time 16.5 hrs.
The target of another data set is Cytochrome P450 2D6 (Homo sapiens, UniProt P10635). Briefly: Inhibition of CYP2D6 in human liver microsomes using dextromethorphan as substrate upto 100 uM incubated for 10 mins in presence of NADPH by LC-MS/MS analysis. The data set is classed as ADME, Microsome.
Cytochrome P450 2D6, sequence (P10635 whole entry): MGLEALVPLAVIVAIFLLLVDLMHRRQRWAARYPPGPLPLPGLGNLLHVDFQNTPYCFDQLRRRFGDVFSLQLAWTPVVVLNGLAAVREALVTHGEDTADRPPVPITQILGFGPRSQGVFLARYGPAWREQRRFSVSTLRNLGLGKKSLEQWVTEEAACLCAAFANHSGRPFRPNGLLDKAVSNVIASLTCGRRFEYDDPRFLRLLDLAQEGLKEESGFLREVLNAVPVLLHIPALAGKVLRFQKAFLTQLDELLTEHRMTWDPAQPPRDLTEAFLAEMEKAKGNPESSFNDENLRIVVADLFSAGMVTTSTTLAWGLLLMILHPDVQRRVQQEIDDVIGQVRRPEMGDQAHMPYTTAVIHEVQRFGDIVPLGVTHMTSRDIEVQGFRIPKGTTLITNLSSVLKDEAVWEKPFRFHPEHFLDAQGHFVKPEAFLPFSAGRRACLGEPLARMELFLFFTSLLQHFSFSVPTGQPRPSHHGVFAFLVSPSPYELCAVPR
Data set [5] addresses T1, P2X purinoceptor 7 (Homo sapiens) (UniProt Q99572).
T1 sequence (whole entry): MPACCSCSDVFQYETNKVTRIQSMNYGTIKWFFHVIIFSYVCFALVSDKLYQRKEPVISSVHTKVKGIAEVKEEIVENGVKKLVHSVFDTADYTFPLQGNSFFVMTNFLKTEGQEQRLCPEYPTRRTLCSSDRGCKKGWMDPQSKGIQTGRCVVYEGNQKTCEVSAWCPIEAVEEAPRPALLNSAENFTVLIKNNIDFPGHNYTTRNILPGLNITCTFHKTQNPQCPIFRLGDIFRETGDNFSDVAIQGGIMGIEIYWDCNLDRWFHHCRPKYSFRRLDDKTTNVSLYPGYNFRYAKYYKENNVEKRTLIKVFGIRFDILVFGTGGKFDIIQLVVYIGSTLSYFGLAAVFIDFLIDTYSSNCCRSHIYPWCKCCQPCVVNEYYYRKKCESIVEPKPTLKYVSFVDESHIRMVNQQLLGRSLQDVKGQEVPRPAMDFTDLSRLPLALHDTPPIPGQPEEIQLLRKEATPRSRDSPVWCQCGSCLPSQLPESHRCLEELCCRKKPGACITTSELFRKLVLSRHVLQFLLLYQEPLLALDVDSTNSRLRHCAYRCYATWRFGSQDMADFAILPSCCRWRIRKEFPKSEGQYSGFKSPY
Briefly: Antagonist activity at P2X7 receptor in human THP-1 cells assessed as inhibition of Bz-ATP-evoked channel current at 2 uM by whole-cell patch clamp analysis. In kind it is cell-based. Conditions: filed as antagonist. On the technique in general: The patch-clamp technique gives a direct electrical read-out from membranes.

Data set [6] concerns the target T1, P2X purinoceptor 7 (Homo sapiens). Briefly: Antagonist activity at P2X7 receptor in human THP-1 cells assessed as inhibition of ATP-induced NLRP3 inflammasome activation at 0.1 to […] pretreated with LPS for 3 hrs followed by incubation with compound for 40 mins followed by treatment with ATP for 1 hr by western blot analysis. The data set is classed as cell-based. The following applies: filed as antagonist, dose 0.1-2.5 µM, time 100.0 min. For orientation: Immunoblotting shows a protein as a band on a membrane.

The test system of another data set is THP-1. Briefly: Inhibition of ATP-induced ROS production in human THP-1 cells at […] pretreated with LPS for 3 hrs followed by incubation with compound for 40 mins followed by treatment with ATP for 1 hr by DCFH-DA staining based fluorescence microscopic analysis. The data set is classed as functional, cell-based. Conditions: dose 2.5 µM, time 100.0 min.
The nature of data set [7]: Toxicity in C57BL/6J mouse assessed as pathological changes in testes at 20 mg/kg, ip administered twice at 0 hrs and 8 hrs and measured after 16 hrs by Hematoxylin-Eosin staining based analysis. The data set is classed as organism-based. Conditions: in vivo.
The test system of data set [8] is Mus musculus. Briefly: Reno-protective activity against LPS-induced acute kidney injury C57BL/6J mouse model assessed as decrease in tubular injury by measuring epithelial flattening and tubular dilation at 5 to 20 mg/kg, ip administered twice at 30 mins prior to LPS challenge and 8 hrs post-LPS challenge and measured at 16 hrs post-LPS challenge by Hematoxylin-Eosin staining based analysis. The following applies: dose 5-20 mg/kg, time 16.5 hrs. The data set is classed as functional, organism-based.

Data set [9] relates to Mus musculus. In words: Reno-protective activity against LPS-induced acute kidney injury C57BL/6J mouse model assessed as decrease in BUN level at 5 to 20 mg/kg, ip administered twice at 30 mins prior to LPS challenge and 8 hrs post-LPS challenge and measured at 16 hrs post-LPS challenge. The following applies: dose 5-20 mg/kg, time 16.5 hrs. In kind it is functional, organism-based.

In data set [10] the test system is Mus musculus. In words: Reno-protective activity against LPS-induced acute kidney injury C57BL/6J mouse model assessed as decrease in KIM1 mRNA expression in kidney at 5 to 20 mg/kg, ip administered twice at 30 mins prior to LPS challenge and 8 hrs post-LPS challenge and measured at 16 hrs post-LPS challenge by RT-qPCR analysis. In kind it is functional, organism-based. The following applies: dose 5-20 mg/kg, time 16.5 hrs.

In data set [11] the test system is Mus musculus. In words: Reno-protective activity against CLP-induced acute kidney injury C57BL/6J mouse model assessed as decrease in serum […] level at 20 mg/kg, ip administered twice at 30 mins prior to CLP operation and 8 hrs post-CLP operation and measured at 16 hrs post-CLP operation. The data set is classed as functional, organism-based. Conditions: time 16.5 hrs.

Data set [12] has as its system Mus musculus. In words: Reno-protective activity against CLP-induced acute kidney injury C57BL/6J mouse model assessed as decrease in KIM1 mRNA expression in kidney at 20 mg/kg, ip administered twice at 30 mins prior to CLP operation and 8 hrs post-CLP operation and measured at 16 hrs post-CLP operation by RT-qPCR analysis. In kind it is functional, organism-based. The following applies: time 16.5 hrs.

The subject of data set [13] is Mus musculus. Briefly: Reno-protective activity against CLP-induced acute kidney injury C57BL/6J mouse model assessed as decrease in Il1b gene expression in kidney at 20 mg/kg, ip administered twice at 30 mins prior to CLP operation and 8 hrs post-CLP operation and measured at 16 hrs post-CLP operation by RNA sequencing analysis. In kind it is functional, organism-based. Conditions: time 16.5 hrs.

The test system of data set [14] is Mus musculus. In words: Reno-protective activity against CLP-induced acute kidney injury C57BL/6J mouse model assessed as decrease in Il17 gene expression in kidney at 20 mg/kg, ip administered twice at 30 mins prior to CLP operation and 8 hrs post-CLP operation and measured at 16 hrs post-CLP operation by RNA sequencing analysis. The following applies: time 16.5 hrs. The data set is classed as functional, organism-based.

The subject of data set [15] is Mus musculus. In words: Reno-protective activity against CLP-induced acute kidney injury C57BL/6J mouse model assessed as decrease in NLRP3 mRNA expression in kidney at 20 mg/kg, ip administered twice at 30 mins prior to CLP operation and 8 hrs post-CLP operation and measured at 16 hrs post-CLP operation by RT-qPCR analysis. The following applies: time 16.5 hrs. The data set is classed as functional, organism-based.

In data set [16] the test system is Mus musculus. Briefly: Reno-protective activity against CLP-induced acute kidney injury C57BL/6J mouse model assessed as decrease in GSDMD mRNA expression in kidney at 20 mg/kg, ip administered twice at 30 mins prior to CLP operation and 8 hrs post-CLP operation and measured at 16 hrs post-CLP operation by RT-qPCR analysis. In kind it is functional, organism-based. Conditions: time 16.5 hrs.

Data set [17] concerns Mus musculus. In words: Reno-protective activity against CLP-induced acute kidney injury C57BL/6J mouse model assessed as decrease in cleaved IL-1 beta protein expression in kidney at 20 mg/kg, ip administered twice at 30 mins prior to CLP operation and 8 hrs post-CLP operation and measured at 16 hrs post-CLP operation by western blot analysis. In kind it is functional, organism-based. The following applies: time 16.5 hrs.

The test system of data set [18] is Mus musculus. Briefly: Reno-protective activity against ip dosed LPS-induced acute kidney injury C57BL/6J mouse model assessed as decrease in serum […] level administered twice at 30 mins prior to LPS challenge and 8 hrs post-LPS challenge and measured at 16 hrs post-LPS challenge. Conditions: time 16.5 hrs, read-out: MED. The data set is classed as functional.

The source made the active and inactive calls.

Regarding `CS(=O)(=O)c1ccc(-c2nc(C(=O)NCc3cn(-c4cc(Br)ccn4)nn3)cs2)cc1`, in data set [1], the half-life (as a rule, the time needed for the level to fall by half in the phase considered) was more than 2 h. Besides, the peak concentration (Cmax) (in general, the maximum level reached in the sampled fluid or tissue) in data set [2] stood at 4730 ng/mL. In data set [3], the area under the curve AUC(0-t) (usually the area under the concentration-time curve up to a stated or last time point) at 24 h was found to be 11900 ng·h/mL. Besides, the result in the data set with Mus musculus [4], in the data set with Mus musculus [11], with Mus musculus [12], with Mus musculus [13], with Mus musculus [14] and with Mus musculus [15] was Active. Besides, the result in the data set with Mus musculus [16] and with Mus musculus [17] was Active. Further, the “inhibition (INH)” value at Cytochrome P450 2D6 is “Not Active”. The inhibition (in general, the share of the control response that was lost under treatment) in data set [5] was determined as 56.1%. For the same molecule, the inhibition entry (in [6]; in the data set on THP-1) was “Active” each time. In addition, the Activity entry was “Non-Toxic” in data set [7], “Dose-Dependent Effect” in the data set with Mus musculus [8], “Dose-Dependent Effect” with Mus musculus [9] and “Dose-Dependent Effect” with Mus musculus [10]. Moreover, in the data set on Mus musculus [18], the minimal effective dose came out at 5 mg/kg.

These data come from ChEMBL document CHEMBL5360655, “Design, Synthesis, and Biological Evaluation of Novel P2X7 Receptor Antagonists for the Treatment of Septic Acute Kidney Injury” (J Med Chem, 2023).
